Tests used:
[1] = test system: adult houseflies (Musca domestica); assay: Musca domestica test (MUSCDO); assay type: in vivo; details: application rate 100 ppm; after 2 days
Outline: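 Groups of 10 adult Musca domestica exposed to a sugar-soaked sponge treated with the water-diluted DMSO preparation of compound at the chosen concentration. Percent kill read at day 2, where 0% means no flies killed and 100% all killed.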

[2] = test system: larvae of the mustard beetle (Phaedon cochleariae); assay: Phaedon cochleariae spray test (PHAECO); assay type: in vivo; details: Chinese cabbage leaf discs, after 7 days
Outline: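 Kill of mustard beetle larvae is read as % mortality 7 days after spraying. Spray liquid: active compound in acetone plus dimethylformamide, brought up with water holding 1000 ppm alkylaryl polyglycol ether emulsifier and diluted further in emulsifier-water.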

[3] = test system: adult dog ticks (Rhipicephalus sanguineus); assay: Rhipicephalus sanguineus in vitro contact test with adult brown dog ticks (T2); details: after 48 h
Outline: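 Acetone solutions coated onto test tube walls and floor, giving 5 μg/cm^2 at 900 ppm. Five to ten adult ticks held per tube in the dark at room temperature for 48 h, then heated at 45-50° C for up to 5 min; efficacy is the percentage of dead or moribund ticks unable to climb away.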

[4] = test system: caterpillars of the armyworm (Spodoptera frugiperda); assay: Spodoptera frugiperda spray test (SPODFR); assay type: in vivo; details: maize leaf discs, after 7 days
Outline: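 Percent kill read at day 7 on caterpillar-infested maize leaf discs. Discs were first sprayed with aqueous emulsifier-containing (1000 ppm) preparations made from acetone/dimethylformamide solutions, and dried. Scale: 0% none dead, 100% all dead.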

[5] = test system: adult castor bean ticks (Ixodes ricinus); assay: Ixodes ricinus in vitro contact test with adult castor bean ticks (T3); details: after 48 h
Outline: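 Test compound was dissolved in acetone p.a. (9 mg in 1 ml) and diluted with acetone; 250 μl were spread evenly over the inner walls and floor of 25 ml test tubes by rocking on an orbital shaker (2 h, 30 rpm). Once the solvent evaporated, 5-10 adult Ixodes ricinus ticks were added, tubes closed with perforated lids and kept horizontally in darkness at 22° C. and 90% humidity. After 48 h, ticks were placed on a 45-50° C. hotplate for up to 5 min; those motionless or unable to climb away were scored dead or moribund.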

[6] = test system: engorged adult female cattle ticks (Boophilus microplus); assay: Boophilus microplus injection test (BOOPMI Inj); assay type: in vivo; details: application rate 20 μg/animal; injection into abdomen; assessed after 7 days
Outline: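 Efficacy is read at 7 days as fertile egg laying (100% = no fertile eggs laid; 0% = all eggs fertile), with eggs of unclear fertility stored until larvae hatch at about 42 days. Five engorged adult females per dose each receive an abdominal injection of 1 μl compound dissolved in DMSO.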

[7] = test system: Tick nymphs (Amblyomma hebraeum); assay: Amblyomma hebraeum test (AMBYHE), tick nymphs immersed; assay type: in vivo; details: application rate 100 ppm; immersed one minute; after 42 days
Experimental: A. Amblyomma hebaraeum Test (AMBYHE)
Solvent: dimethyl sulphoxide
To produce a suitable preparation of active compound, 10 mg of active compound are mixed with 0.5 ml of dimethyl sulfoxide, and the concentrate is diluted with water to the desired concentration.
Tick nymphs (Amblyomma hebraeum) are placed into perforated plastic beakers and immersed in the desired concentration for one minute. The ticks are transferred on filter paper into a Petri dish and stored in a climate-controlled cabinet.
After 42 days, the kill in % is determined. 100% means that all of the ticks have been killed; 0% means that none of the ticks have been killed.

[8] = test system: adult cat fleas (Ctenocephalides felis); assay: Ctenocephalides felis in vitro contact test with adult cat fleas (T1); details: after 48 h
Outline: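 Adult cat fleas (Ctenocephalides felis), 5-10 per tube, were exposed to the inner surface of 25 ml test tubes coated with compound in acetone. Tubes were incubated lying flat under ambient conditions. Efficacy was then read by standing tubes upright and knocking the fleas to the floor. Fleas that stayed motionless or moved uncoordinatedly counted as dead or moribund, where 100% means all fleas dead or moribund and 0% means none harmed.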

[9] = test system: adult cat fleas (Ctenocephalides felis); assay: Ctenocephalides felis oral test (CTECFE); assay type: in vivo; details: application rate 100 ppm in citrated cattle blood; after 2 days
Outline: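 Mortality read at 2 days as percent of fleas killed. Compound predissolved in DMSO, diluted into citrated cattle blood and offered to roughly 20 unfed adult C. felis via parafilm membrane feeder.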

Cn1nc(C(F)(F)C(F)(F)F)c(C(F)(F)F)c1-n1ccc(-c2ccc(Cl)c(C(=O)NC3(C#N)CC3)c2)c1 [Ia-1]
100%: efficacy in % ([2]; application rate 100 g/ha) | efficacy (dead or moribund ticks) ([3]; application rate 1 μg/cm^2) | efficacy (dead or moribund ticks) ([3]; application rate 5 μg/cm^2) | efficacy in % ([4]; application rate 100 g/ha) | efficacy (dead or moribund ticks) ([5]; application rate 1 μg/cm^2) | efficacy (dead or moribund ticks) ([5]; application rate 5 μg/cm^2) | efficacy (laying of fertile eggs) [6] | efficacy (kill in %) [7] | efficacy (dead or moribund fleas) ([8]; application rate 1 μg/cm^2) | efficacy (dead or moribund fleas) ([8]; application rate 5 μg/cm^2) | efficacy (kill in %) [9]
80%: efficacy (kill in %) [1]

Cn1nc(C(F)(F)C(F)(F)F)c(C(F)(F)F)c1-n1cc(-c2ccc(Cl)c(C(=O)NC3(C(N)=S)CC3)c2)cn1 [Ic-11]
100%: efficacy (kill in %) [1] | efficacy in % ([2]; application rate 100 g/ha) | efficacy (dead or moribund ticks) ([3]; application rate 1 μg/cm^2) | efficacy (dead or moribund ticks) ([3]; application rate 5 μg/cm^2) | efficacy in % ([4]; application rate 100 g/ha) | efficacy (dead or moribund ticks) ([5]; application rate 5 μg/cm^2) | efficacy (laying of fertile eggs) [6] | efficacy (kill in %) [7] | efficacy (dead or moribund fleas) ([8]; application rate 1 μg/cm^2) | efficacy (dead or moribund fleas) ([8]; application rate 5 μg/cm^2) | efficacy (kill in %) [9]
80%: efficacy (dead or moribund ticks) ([5]; application rate 1 μg/cm^2)

Cn1nc(C(F)(F)C(F)(F)F)c(C(F)(F)F)c1-n1cc(-c2ccc(Cl)c(C(=O)NC3(C#N)CC3)c2)cn1 [Ic-2]
100%: efficacy (kill in %) [1] | efficacy in % ([2]; application rate 100 g/ha) | efficacy (dead or moribund ticks) ([3]; application rate 1 μg/cm^2) | efficacy (dead or moribund ticks) ([3]; application rate 5 μg/cm^2) | efficacy in % ([4]; application rate 100 g/ha) | efficacy (dead or moribund ticks) ([5]; application rate 1 μg/cm^2) | efficacy (dead or moribund ticks) ([5]; application rate 5 μg/cm^2) | efficacy (laying of fertile eggs) [6] | efficacy (kill in %) [7] | efficacy (dead or moribund fleas) ([8]; application rate 1 μg/cm^2) | efficacy (dead or moribund fleas) ([8]; application rate 5 μg/cm^2) | efficacy (kill in %) [9]

Cn1nc(C(F)(F)C(F)(F)F)c(C(F)(F)F)c1-n1cc(-c2cc(Cl)c(Cl)c(C(=O)NC3CC3)c2)cn1 [Ic-94]
100%: efficacy (kill in %) [1] | efficacy in % ([2]; application rate 500 g/ha) | efficacy (dead or moribund ticks) ([3]; application rate 1 μg/cm^2) | efficacy (dead or moribund ticks) ([3]; application rate 5 μg/cm^2) | efficacy in % ([4]; application rate 500 g/ha) | efficacy (dead or moribund ticks) ([5]; application rate 1 μg/cm^2) | efficacy (dead or moribund ticks) ([5]; application rate 5 μg/cm^2) | efficacy (laying of fertile eggs) [6] | efficacy (kill in %) [7] | efficacy (dead or moribund fleas) ([8]; application rate 1 μg/cm^2) | efficacy (dead or moribund fleas) ([8]; application rate 5 μg/cm^2) | efficacy (kill in %) [9]

Cn1nc(C(F)(F)C(F)(F)F)c(C(F)(F)F)c1-n1ccc(-c2ccc(Cl)c(C(=O)NC3CC3)c2)c1 [Ia-2]
90%: efficacy (kill in %) [1]
100%: efficacy in % ([2]; application rate 100 g/ha) | efficacy (dead or moribund ticks) ([3]; application rate 1 μg/cm^2) | efficacy (dead or moribund ticks) ([3]; application rate 5 μg/cm^2) | efficacy in % ([4]; application rate 100 g/ha) | efficacy (dead or moribund ticks) ([5]; application rate 1 μg/cm^2) | efficacy (dead or moribund ticks) ([5]; application rate 5 μg/cm^2) | efficacy (laying of fertile eggs) [6] | efficacy (kill in %) [7] | efficacy (dead or moribund fleas) ([8]; application rate 1 μg/cm^2) | efficacy (dead or moribund fleas) ([8]; application rate 5 μg/cm^2) | efficacy (kill in %) [9]

Cn1nc(C(F)(F)C(F)(F)F)c(C(F)(F)F)c1-n1cnc(-c2ccc(Cl)c(C(=O)NC3CC3)c2)c1 [Ib-3]
100%: efficacy (kill in %) [1] | efficacy in % ([2]; application rate 100 g/ha) | efficacy (dead or moribund ticks) ([3]; application rate 1 μg/cm^2) | efficacy in % ([4]; application rate 100 g/ha) | efficacy (laying of fertile eggs) [6] | efficacy (kill in %) [7] | efficacy (dead or moribund fleas) ([8]; application rate 1 μg/cm^2) | efficacy (dead or moribund fleas) ([8]; application rate 5 μg/cm^2) | efficacy (kill in %) [9]
80%: efficacy (dead or moribund ticks) ([3]; application rate 5 μg/cm^2) | efficacy (dead or moribund ticks) ([5]; application rate 1 μg/cm^2) | efficacy (dead or moribund ticks) ([5]; application rate 5 μg/cm^2)
